Marks after values point to notes of the source that are not given here.
Tests used:
[1] = 24-h urine electrolyte excretion, healthy subjects; type: in vivo, human; conditions: for Urinary chloride excretion / Urinary potassium excretion / Urinary sodium excretion: 24-h, healthy subjects, mean (SD)
Procedure: (§1) Urine samples were collected at pre-dose, and over a series of intervals (0–2, 2–4, 4–6, 6–8, 8–12 and 12–24 h post-dose) for the analysis of creatinine, glucose and electrolytes (Na, K and Cl). All fluid intake was recorded, as well as urine volume, over the 24 hours before and after dosing in each treatment period. Urine was tested for protein on the first morning void of day -1 and 24 h after dosing.

[2] = Adverse events after single oral doses, T2DM subjects (Part B); type: in vivo, human; conditions: for At least one adverse event: n = 6
Procedure: This double-blind, randomized, placebo-controlled, single escalating-dose crossover study was conducted in two parts: Part A consisted of a randomized, dose-escalation in healthy subjects; Part B was of similar design, but conducted in subjects with T2DM and included an evaluation of pharmacodynamics using a 50 g oral glucose tolerance test (OGTT).
Six subjects with T2DM received two doses of remogliflozin etabonate and a placebo dose, in a randomized, dose escalating, crossover design, along with an oral glucose load on three study sessions separated by 7–14 days. Full PK and safety profiles were measured on Day 1 of each dosing period. The doses selected for this portion of the study, 50 mg and 500 mg, were based on data obtained in Part A. In each dosing period, subjects were assigned to active vs placebo in a 2:1 ratio.
All subjects were admitted to the unit two nights prior to receiving study drug to establish baseline safety parameters and fluid intake levels over a 36 h period. Subjects remained in the unit for at least 24 h after doses were administered for monitoring of clinical laboratory parameters exploratory biomarkers, vital signs, ECGs and adverse events. While confined to the clinical research unit, all subjects received meals standardized with respect to calories, fat, protein, carbohydrate, and sodium content; however, detailed dietary information was not captured in this study. In Part A, subjects were dosed following an overnight fast; lunch and dinner were provided at 4 and 10 h after dosing, respectively. Fifteen minutes after dosing in each treatment period in Part B, a fasting OGTT was performed using 50 g glucose (administered as 50 g Glucola™). A 50 g glucose load was chosen since the OGTT was being performed in subjects already known to have diabetes. The glucose drink was consumed by subjects within approximately 5 minutes. Blood samples for the measurement of glucose, insulin, and intact glucagon-like peptide 1 (GLP-1) were collected for 24 hours following dose administration. Provided that there were no safety or tolerability concerns, subjects were released from the clinic on day 2 of each treatment period until their return for the next treatment or follow-up period. Each subject was involved in the study for approximately 8 weeks (from screening to follow-up).

[3] = Fluid balance, healthy subjects; type: in vivo, human; conditions: mean (SD)
Procedure: as §1

[4] = target: T1, SGLT2 (Homo sapiens, UniProt P31639); test: 24-h urine glucose excretion, healthy subjects; type: in vivo; conditions: for Filtered glucose excreted in urine / Urinary glucose excretion: 24-h, healthy subjects, mean (SD)
T1 construct: from tissue; host or cells: kidney (proximal tubule) of living human subjects: healthy volunteers and T2DM patients
T1 sequence (P31639 1-672): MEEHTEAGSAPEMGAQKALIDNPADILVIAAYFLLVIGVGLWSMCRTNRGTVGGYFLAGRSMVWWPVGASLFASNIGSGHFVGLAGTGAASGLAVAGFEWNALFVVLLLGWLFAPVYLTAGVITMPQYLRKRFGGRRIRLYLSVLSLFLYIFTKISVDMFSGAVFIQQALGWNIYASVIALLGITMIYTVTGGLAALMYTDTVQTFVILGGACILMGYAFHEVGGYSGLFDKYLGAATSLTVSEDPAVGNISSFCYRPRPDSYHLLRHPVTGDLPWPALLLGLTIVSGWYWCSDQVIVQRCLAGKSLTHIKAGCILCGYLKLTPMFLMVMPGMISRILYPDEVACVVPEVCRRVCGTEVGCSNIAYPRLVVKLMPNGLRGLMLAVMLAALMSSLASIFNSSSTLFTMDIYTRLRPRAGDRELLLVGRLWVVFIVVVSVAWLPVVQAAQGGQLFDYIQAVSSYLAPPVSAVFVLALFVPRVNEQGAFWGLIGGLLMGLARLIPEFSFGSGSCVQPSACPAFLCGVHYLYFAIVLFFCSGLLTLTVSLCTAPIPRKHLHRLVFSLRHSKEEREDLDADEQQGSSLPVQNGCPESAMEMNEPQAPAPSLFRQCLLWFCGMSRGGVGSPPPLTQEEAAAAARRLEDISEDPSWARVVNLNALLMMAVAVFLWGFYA
Procedure: as §1
The percentage of filtered glucose excreted in the urine for each individual time period was calculated as the amount of glucose excreted during that time period divided by (CLCR × PG × time interval length), where CLCR is the creatinine clearance for the time interval, PG is the plasma glucose concentration closest to the midpoint of the time interval, and the time interval is the period (min) of urine collection (CLCR × PG represents the glucose filtered load). For the 24-h period, the percentage of filtered glucose excreted was calculated as the amount of glucose excreted over 24 h divided by the sum over the individual time intervals of (CLCR × PG × time interval length).

[5] = 24-h urine electrolyte excretion, T2DM subjects; type: in vivo, human; conditions: mean (SD)
Procedure: as §1

CCOC(=O)OC[C@H]1O[C@@H](Oc2nn(C(C)C)c(C)c2Cc2ccc(OC(C)C)cc2)[C@H](O)[C@@H](O)[C@@H]1O [Remogliflozin etabonate, remogliflozin etabonate]
Urinary chloride excretion ([1]; 20 mg single dose): 136 (56.6) mmol
Urinary potassium excretion ([1]; 20 mg single dose): 66.6 (27.7) mmol
Urinary sodium excretion ([1]; 20 mg single dose): 148 (64.0) mmol
Urinary chloride excretion ([1]; 50 mg single dose, n = 7): 189 (51.4)^b mmol
Urinary potassium excretion ([1]; 50 mg single dose, n = 7): 75.2 (21.3)^b mmol
Urinary sodium excretion ([1]; 50 mg single dose, n = 7): 212 (67.6)^b mmol
Urinary chloride excretion ([1]; 150 mg single dose, n = 7): 179 (49.6)^b mmol
Urinary potassium excretion ([1]; 150 mg single dose, n = 7): 59.7 (20.3)^b mmol
Urinary sodium excretion ([1]; 150 mg single dose, n = 7): 176 (38.7)^b mmol
Urinary chloride excretion ([1]; 500 mg single dose): 126 (55) mmol
Urinary potassium excretion ([1]; 500 mg single dose): 55.8 (17.2) mmol
Urinary sodium excretion ([1]; 500 mg single dose): 143 (55.0) mmol
Urinary chloride excretion ([1]; 1000 mg single dose): 201 (61.5) mmol
Urinary potassium excretion ([1]; 1000 mg single dose): 89.1 (24.7) mmol
Urinary sodium excretion ([1]; 1000 mg single dose): 207 (62.9) mmol
Effect on clinical laboratory results, urine electrolytes, vital signs or ECGs ([1]; all subjects): no obvious patterns suggesting an effect
Muscle cramp (adverse events reported by >1 subject in total) ([2]; 50 mg single oral dose): 1 (17) n (%)
Nausea (drug-related adverse events) ([2]; 50 mg single oral dose): 0 n (%)
Pain in extremity (drug-related adverse events) ([2]; 50 mg single oral dose): 0 n (%)
β2-microglobulin increased (adverse events reported by >1 subject in total) ([2]; 50 mg single oral dose): 0 n (%)
β2-microglobulin increased (drug-related adverse events) ([2]; 50 mg single oral dose): 0 n (%)
At least one adverse event ([2]; 50 mg single oral dose): 1 (17) n (%)
Muscle cramp (adverse events reported by >1 subject in total) ([2]; 500 mg single oral dose): 0 n (%)
Nausea (drug-related adverse events) ([2]; 500 mg single oral dose): 1 (17) n (%)
Pain in extremity (drug-related adverse events) ([2]; 500 mg single oral dose): 1 (17) n (%)
β2-microglobulin increased (adverse events reported by >1 subject in total) ([2]; 500 mg single oral dose): 2 (33) n (%)
β2-microglobulin increased (drug-related adverse events) ([2]; 500 mg single oral dose): 1 (17) n (%)
At least one adverse event ([2]; 500 mg single oral dose): 2 (33) n (%)
Fluid balance (total fluid intake minus total urine volume) ([3]; 0–12 h post-dose, 20 mg): 243 (1161) mL
Fluid balance (total fluid intake minus total urine volume) ([3]; 0–12 h post-dose, 50 mg): -570 (582) mL
Fluid balance (total fluid intake minus total urine volume) ([3]; 0–12 h post-dose, 150 mg): -86 (909) mL
Fluid balance (total fluid intake minus total urine volume) ([3]; 0–12 h post-dose, 500 mg): -159 (531) mL
Fluid balance (total fluid intake minus total urine volume) ([3]; 0–12 h post-dose, 1000 mg): -273 (331) mL
Fluid balance (total fluid intake minus total urine volume) ([3]; 12–24 h post-dose, 20 mg): -581 (387) mL
Fluid balance (total fluid intake minus total urine volume) ([3]; 12–24 h post-dose, 50 mg): -551 (530) mL
Fluid balance (total fluid intake minus total urine volume) ([3]; 12–24 h post-dose, 150 mg): -564 (478) mL
Fluid balance (total fluid intake minus total urine volume) ([3]; 12–24 h post-dose, 500 mg): -424 (334) mL
Fluid balance (total fluid intake minus total urine volume) ([3]; 12–24 h post-dose, 1000 mg): -495(367) mL
Fluid balance (total fluid intake minus total urine volume) ([3]; -24 h to pre-dose (baseline before dosing), 20 mg period): -460 (1311) mL
Fluid balance (total fluid intake minus total urine volume) ([3]; -24 h to pre-dose (baseline before dosing), 50 mg period): -338 (525) mL
Fluid balance (total fluid intake minus total urine volume) ([3]; -24 h to pre-dose (baseline before dosing), 150 mg period): -512 (731) mL
Fluid balance (total fluid intake minus total urine volume) ([3]; -24 h to pre-dose (baseline before dosing), 500 mg period): -278 (1250) mL
Fluid balance (total fluid intake minus total urine volume) ([3]; -24 h to pre-dose (baseline before dosing), 1000 mg period): -126 (798) mL
Filtered glucose excreted in urine ([4]; 20 mg single dose): 9.0 (2.2) %
Urinary glucose excretion ([4]; 20 mg single dose): 67.1 (17.9) mmol
Filtered glucose excreted in urine ([4]; 50 mg single dose, n = 7): 12.7 (3.7)^b %
Urinary glucose excretion ([4]; 50 mg single dose, n = 7): 96.7 (17.1)^b mmol
Filtered glucose excreted in urine ([4]; 150 mg single dose, n = 7): 25.5 (7.8)^b %
Urinary glucose excretion ([4]; 150 mg single dose, n = 7): 168 (49.4)^b mmol
Filtered glucose excreted in urine ([4]; 500 mg single dose): 34.2 (5.0) %
Urinary glucose excretion ([4]; 500 mg single dose): 223 (49.5) mmol
Filtered glucose excreted in urine ([4]; 1000 mg single dose): 26.4 (11.7) %
Urinary glucose excretion ([4]; 1000 mg single dose): 304 (137) mmol
Total amount of glucose excreted in urine from 0–24 h, dose dependence ([4]; both populations, less than proportional to dose): increased in a dose-dependent manner
Urinary chloride excretion ([5]; 50 mg single dose, n = 5): 168 (23.9)^c mmol
Urinary potassium excretion ([5]; 50 mg single dose, n = 5): 65.8 (4.5)^c mmol
Urinary sodium excretion ([5]; 50 mg single dose, n = 5): 173 (35.5)^c mmol
Urinary chloride excretion ([5]; 500 mg single dose): 287 (147) mmol
Urinary potassium excretion ([5]; 500 mg single dose): 108 (65.8) mmol
Urinary sodium excretion ([5]; 500 mg single dose): 301 (128) mmol

— PMC3700763, “First human dose-escalation study with remogliflozin etabonate, a selective inhibitor of the sodium-glucose transporter 2 (SGLT2), in healthy subjects and in subjects with type 2 diabetes mellitus” (BMC Pharmacology & Toxicology, 2013)
